Read-outs that look alike come from different tables or passages of the source.
Experiments:
[1] = system: Ozark conventional soybean; settings: for Soybean Injury (%) 10 DAT / Soybean Injury (%) 35 DAT: fungicide-only seed
Procedure: A field experiment was conducted in the summer of 2014 near Newport, Ark. to evaluate the effect of a soybean insecticide seed treatment, Cruiser Maxx, on herbicide injury to convention soybean. The conventional soybean variety Ozark was planted on 7-17-14 in plots measuring 7.5×20 feet in size. In each plot, half the drill rows were treated with Cruiser Maxx at 7 oz/cwt, and the other half were treated with only the fungicide portion of that treatment. Seeding rate was 125,000 seeds per acre. Seed were planted to a depth of 0.5 inches. Soil temperature at the time of planting and application of the PRE treatments was 62 degrees F.
Post emerge treatments included Roundup PowerMax (2 and 4 oz/A), Liberty (2 and 4 oz/A), dicamba (0.25 and 0.5 oz/A), 2,4-D (0.75 and 1.5 oz/A) and Permit at 0.5 and 1.0 oz/A applied at the third trifoliate stage. Herbicides were applied with a 4 nozzle boom calibrated to deliver 15 GPA using CO2 as a propellant.
Plots were visually rated for herbicide injury at 10 days after emergence and at 35 days after application of the POST treatments. The rating scale was 0 to 100 where 0=no injury and 100=complete death or desiccation of the plant. Means were separated using Fisher's protected LSD (0.05).

cotton = settings: insecticide applied in-furrow; York et al. (1991); cited from earlier work
[2] = system: conventional rice (Roy J); type: in vivo
Procedure: This experiment was conducted at a farm located just north of Lonoke, Ark. in the summers of 2013 and 2014. The soil texture is a silt loam with a pH of 6.3. Conventional rice (Roy J) was planted on Apr. 30, 2013 and May 20, 2014 with a Hege cone drill calibrated to deliver a seeding rate of 90 pounds (lbs)/Acre on 7.5-inch rows. Plot size was 5×25 feet. The study was conducted with a randomized complete block design having 4 replications.
Treatments consisted of seed treatment and herbicide combinations. […] The second seed treatment was considered the “nontreated seed” which actually received equivalent amounts of azoxystrobin, mefenoxam and fludioxonil as the treated seed but without the insecticide thiamethoxam.
The herbicide treatments were applied at the 2-4 If growth stage of rice with a CO2 backpack sprayer calibrated to deliver 10 gallons of spray solution per acre. Herbicide treatments included Roundup PowerMax (5.5 lb ai/gallon formulation) applied at 0, 1, 2, and 4.0 oz product/A and Newpath 2AS (2 lb ai/gallon formulation) applied at 0, 0.25, 0.5 and 1.0 oz product/A. The plot area was maintained weed free with conventional rice herbicides and the rice was grown according to University of Arkansas recommendations for soil fertility.
Data collected included: percent visual injury at 7, 21, and 42 days after treatment (DAT) on a scale of 0 to 100 with 0 being no injury and 100 being complete crop death; canopy heights at 68 DAT using a yard stick and 1 meter square piece of cardboard, percent rice heading at 107 DAT, percent moisture, and grain yield at harvest. Data were analyzed and LSD's generated at the p=0.05 level of significance using ARM 9.1.4.

[3] = POST at third trifoliate, averaged across two rates (Roundup PowerMax 2 and 4, dicamba 0.25 and 0.5, 2,4-D 0.75 and 1.5, Permit 0.5 and 1.0 oz/A), Treated soybean (Cruiser Maxx 7 oz/cwt)
[4] = POST at third trifoliate, averaged across two rates (Roundup PowerMax 2 and 4, dicamba 0.25 and 0.5, 2,4-D 0.75 and 1.5, Permit 0.5 and 1.0 oz/A)
[5] = PRE, (T) = Treated soybean (Cruiser Maxx 7 oz/cwt), Metribuzin 0.671 lb/A, Dual Magnum 2.0 pts/A, Zidua 3.5 oz/A, Valor 2.0 oz/A, mixes at same rates
[6] = PRE, Metribuzin 0.671 lb/A, Dual Magnum 2.0 pts/A, Zidua 3.5 oz/A, Valor 2.0 oz/A, mixes at same rates

Row | SMILES | Soybean Injury (%) 10 DAT (T) [1, 3] | Soybean Injury (%) 35 DAT (T) [1, 3] | Soybean Injury (%) 10 DAT [1, 4] | Soybean Injury (%) 35 DAT [1, 4] | clomazone injury to cotton (cotton) | further results
1 | O=C(O)COc1ccc(Cl)cc1Cl [2,4-D] | 15% | 5% | 15% | 5% |  | 
2 | COc1c(Cl)ccc(Cl)c1C(=O)O [Dicamba, dicamba] | 60% | 30% | 60% | 30% |  | 
3 | CSc1nnc(C(C)(C)C)c(=O)n1N [Metribuzin, metribuzin] |  |  |  |  |  | Soybean Injury (%) 10 DAT (T) [1, 5]: 0%; Soybean Injury (%) 35 DAT (T) [1, 5]: 0%; Soybean Injury (%) 10 DAT [1, 6]: 0%; Soybean Injury (%) 35 DAT [1, 6]: 0%
4 | CCOP(=S)(OCC)SCCSCC [disulfoton] |  |  |  |  | greatly reduced | 
5 | CCOP(=S)(OCC)SCSCC [phorate] |  |  |  |  | greatly reduced | 
6 | CN1COCN(Cc2cnc(Cl)s2)/C1=N\[N+](=O)[O-] [thiamethoxam] |  |  |  |  |  | heading ([2]; 107 DAT, all plots that received the insecticide in the seed treatment): 95-100%; yield higher for treated seed plots versus untreated or fungicide only plots ([2]; 2013, Newpath at either 0.25 or 0.5 oz/A): 100 bu/A; yield improved by addition of a seed treatment that included the insecticide ([2]; 2013, Roundup 4.0 oz/A): over 60 bushels
